Results taken from patent publication US10226453B2, “3-(1H-indol-2-yl)-1H-pyrazolo[4,3-B]pyridines and therapeutic uses thereof” (Samumed, LLC, priority 2015, dated 2019).

Assays:
Format in all cases: cell-based
[1] = tested on: SW480 colon cancer cells; experiment: Cell viability assay (CellTiter-Blue), SW480 colon cancer cells; conditions: Homo sapiens, 96 h, four days, CellTiter-Blue
Description: Representative compounds were screened using the following assay procedure to assess the effect on cell viability as described below.
Each compound was dissolved in DMSO as a 10 mM stock and used to prepare compound source plates. Serial dilution (1:3, 8-point dose-response curves from 10 μM to 0.0045 μM) and compound transfer was performed using the ECHO 550 (Labcyte, Sunnyvale, Calif.) into 96-well clear bottom, black-walled plates (Corning—Costar).
Approximately 2×10^3 SW480 colon cancer cells were seeded into each well and allowed to incubate in the presence or absence of compound for four days at 37° C./5% CO2. Eight replicates of DMSO-treated cells served as controls and cells treated with compound were performed in duplicate.
After incubation, 20 μL of CellTiter-Blue (Promega) was added to each well allowed to incubate for approximately 3 hours. This reagent was a buffered solution which contains resazurin, metabolically active cells were able to reduce rezarurin (blue) into resorufin (pink) which was highly fluorescent. This measured fluorescence was used as a readout for cell viability.
After incubation, the plates were read at Ex 560 nm Em 590 nm (Cytation 3, BioTek). Dose-response curves were generated and EC50 concentration values were calculated using non-linear regression curve fit in the GraphPad Prism (San Diego, Calif.) or Dotmatics' Studies Software (Bishops Stortford, UK). For EC50 of >10 μM, the percent inhibition at 10 μM is provided.

[2] = tested on: IL-6 (THP-1 cells); experiment: IL-6 inhibition in LPS-stimulated THP-1 human monocyte cells (HTRF); conditions: LPS 500 ng/mL, 22 hours, IL6 HTRF
Description: Human monocyte cell line (THP-1 cells; Catalog # TIB-202, ATCC, Manassas, Va.) were cultured in Roswell Park Memorial Institute (RPMI) 1640 Medium (Catalog #21870-100, Buffalo, N.Y.) with 1% L-glutamine, 1% HEPES, 1% Sodium Pyruvate, 2% Sodium Bicarbonate supplemented with 100 units/mL penicillin, 50 μg/mL streptomycin, 2-mercaptoethanol (0.05 mM) [basal medium] and 10% fetal bovine serum (Catalog #16140089, Life Technologies, Carlsbad, Calif.) at 37° C. and 5% CO2.
THP-1 cells were cultured in basal media with 1% FBS for 24 hours before the start of the assay. Each compound was dissolved in DMSO as a 10 mM stock and used to prepare compound source plates. Serial dilution (1:3, 10-point dose-response curves starting from 10 μM) and compound transfer was performed using the ECHO 550 (Labcyte, Sunnyvale, Calif.) into 384-well white low volume assay plates (Greiner Bio-One) with appropriate DMSO backfill for a final DMSO concentration of 0.1%. THP-1 cells were plated at 5000 cells/well in the 384-well plates and incubated at 37° C. for 2 h. 500 ng/mL of LPS was added after 2 hours and cells were incubated for another 22 hours at 37° C. Plates were spun in a centrifuge for 1 minute at […] and a mixture of anti-IL6 XL665, and anti-IL6 Cryptate diluted in reconstitution buffer (Cisbio Inc.) was added to each well. Following incubation for 3 hrs at room temperature, Homogeneous Time-Resolved Fluorescence (HTRF) was measured using the Envision (Perkin Elmer) at 665 nm and […]. The ratio of fluorescence at 665 nm to 620 nm was used as a readout for IL6 quantification. All samples were processed in duplicate. Readings were normalized to DMSO treated cells and normalized activities were utilized for EC50 calculations using the dose-response log (inhibitor) vs. response-variable slope (four parameters) nonlinear regression feature available in GraphPad Prism 5.0 (or Dotmatics). For EC50 of >10 μM, the percent inhibition at 10 μM is provided.

[3] = tested on: Wnt activity (Sp5-Luc reporter, SW480 colon carcinoma cells); experiment: Wnt activity screening assay: Sp5-Luc reporter gene in SW480 colon carcinoma cells; conditions: Homo sapiens, overnight incubation, 10-point curve from 10 μM
Excerpt: The screening assay for Wnt activity is described as follows. Reporter cell lines can be generated by stably transducing cancer cell lines (e.g., colon cancer) or primary cells (e.g., IEC-6 intestinal cells) with a lentiviral construct that includes a Wnt-responsive promoter driving expression of the firefly luciferase gene.
SW480 colon carcinoma cells were transduced with a lentiviral vector expressing luciferase with a human Sp5 promoter consisting of a sequence of eight TCF/LEF binding sites. SW480 cells stably expressing the Sp5-Luc reporter gene and a hygromycin resistance gene were selected by treatment with 150 μg/mL of hygromycin for 7 days. These stably transduced SW480 cells were expanded in cell culture and used for all further screening activities. Each compound was dissolved in DMSO as a 10 mM stock and used to prepare compound source plates. Serial dilution (1:3, 10-point dose-response curves starting from 10 μM) and compound transfer was performed using the ECHO 550 (Labcyte, Sunnyvale, Calif.) into 384-well white solid bottom assay plates (Greiner Bio-One) with appropriate DMSO backfill for a final DMSO concentration of 0.1%. For Sp5-Luc reporter gene assays, the cells were plated at 4,000 cells/well in 384-well plates with medium containing 1% fetal bovine serum and incubated overnight at 37° C. and 5% CO2. Following incubation, 20 μl of BrightGlo luminescence reagent (Promega) was added to each well of the 384-well assay plates. The plates were placed on an orbital shaker for 2 min and then luminescence was quantified using the Envision (Perkin Elmer) plate reader. Readings were normalized to DMSO only treated cells, and normalized activities were utilized for EC50 calculations using the dose-response log (inhibitor) vs. response-variable slope (four parameters) nonlinear regression feature available in GraphPad Prism 5.0 (or Dotmatics). For EC50 of >10 μM, the percent inhibition at 10 μM is provided.

[4] = tested on: primary human fibroblasts derived from IPF patients (LL29 cells) treated with TGF-β1; experiment: Inhibition of the fibrotic process: αSMA staining in TGF-β1 treated primary human fibroblasts from IPF patients (LL29 cells); conditions: Fibroblast, 96 h, TGF-β1 20 ng/mL, 4 days, % αSMA positive cells
Excerpt: Representative compounds were screened using primary human fibroblasts (derived from IPF patients) treated with TGF-β1 to determine their ability to inhibit the fibrotic process.
Primary human fibroblasts derived from IPF patients (LL29 cells) [^1Xiaoqiu Liu, et. al., “Fibrotic Lung Fibroblasts Show Blunted Inhibition by cAMP Due to Deficient cAMP Response Element-Binding Protein Phosphorylation”, Journal of Pharmacology and Experimental Therapeutics (2005), 315(2), 678-687; ^2Watts, K. L., et. al., “RhoA signaling modulates cyclin D1 expression in human lung fibroblasts; implications for idiopathic pulmonary fibrosis”, Respiratory Research (2006), 7(1), 88] were obtained from American Type Culture Collection (ATCC) and expanded in F12 medium supplemented with 15% Fetal Bovine Serum and Penicillin/Streptomycin.
Each compound was dissolved in DMSO as a 10 mM stock and used to prepare compound source plates. Serial dilution (1:2, 11-point dose-response curves from 10 μM to 1.87 nM) and compound transfer was performed using the ECHO 550 (Labcyte, Sunnyvale, Calif.) into 384-well clear bottom assay plates (Greiner Bio-One) with appropriate DMSO backfill for a final DMSO concentration of 0.1%. LL29 cells are plated at 1,500 cells/well in 80 μL/well F12 medium supplemented with 1% Fetal Bovine Serum. One hour after addition of the cells, TGF-β1 (Peprotech; 20 ng/mL) was added to the plates to induce fibrosis (ref. 1 and 2 above). Wells treated with TGF-β1 and containing DMSO were used as controls. Cells were incubated at 37° C. and 5% CO2 for 4 days. Following incubation for 4 days, SYTOX green nucleic acid stain (Life Technologies [Thermo Fisher Scientific]) was added to the wells at a final concentration of 1 μM and incubated at room temperature for 30 min. Cells were then fixed using 4% formaldehyde (Electron Microscopy Sciences), washed 3 times with PBS followed by blocking and permeabilization using 3% Bovine Serum Albumin (BSA; Sigma) and 0.3% Triton X-100 (Sigma) in PBS. Cells were then stained with antibody specific to α-smooth muscle actin (αSMA; Abcam) (ref. 1 and 2 above) in 3% Bovine Serum Albumin (BSA; Sigma) and 0.3% Triton X-100 (Sigma) in PBS, and incubated overnight at 4° C. Cells were then washed 3 times with PBS, followed by incubation with Alexa Flor-647 conjugated secondary antibody (Life Technologies [Thermo Fisher Scientific]) and DAPI at room temperature for 1 hour. Cells were then washed 3 times with PBS and plates were sealed for imaging. αSMA staining was imaged by excitation at 630 nm and emission at 665 nm and quantified using the Compartmental Analysis program on the CellInsight CX5 (Thermo Scientific). Dead or apoptotic cells were excluded from analysis based on positive SYTOX green staining. % of total cells positive for αSMA were counted in each well and normalized to the average of 11 wells treated with TGF-β1 on the same plate using Dotmatics' Studies Software. The normalized averages (fold change over untreated) of 3 replicate wells for each compound concentration were used to create dose-responses curves and EC50 values were calculated using non-linear regression curve fit in the Dotmatics' Studies Software. For EC50 of >10 μM, the percent inhibition at 10 μM is provided.

SMILES	EC50 [1]	EC50 [2]	EC50 [3]	EC50 [4]
CC(C)Nc1cncc(-c2ccc3[nH]nc(-c4cc5ncccc5[nH]4)c3n2)c1 [Compound 516, 5-(3-(1H-Pyrrolo[3,2-b]pyridin-2-yl)-1H-pyrazolo[4,3-b]pyridin-5-yl)-N-isopropylpyridin-3-amine]	145 nM	37 nM	61 nM	1970 nM
CCCCC(=O)Nc1cncc(-c2ccc3[nH]nc(-c4cc5ncccc5[nH]4)c3n2)c1 [Compound 523, N-(5-(3-(1H-Pyrrolo[3,2-b]pyridin-2-yl)-1H-pyrazolo[4,3-b]pyridin-5-yl)pyridin-3-yl)pentanamide]	943 nM	20 nM	550 nM	697 nM
Cn1cc(-c2ccc3[nH]nc(-c4cc5c(-c6cccc(F)c6)cccc5[nH]4)c3n2)cn1 [Compound 536, 3-(4-(3-Fluorophenyl)-1H-indol-2-yl)-5-(1-methyl-1H-pyrazol-4-yl)-1H-pyrazolo[4,3-b]pyridine]	2780 nM	23 nM	338 nM	230 nM
CN(C)CCOc1cncc(-c2ccc3[nH]nc(-c4cc5c(-c6cccnc6)cccc5[nH]4)c3n2)c1 [Compound 591, N,N-Dimethyl-2-((5-(3-(4-(pyridin-3-yl)-1H-indol-2-yl)-1H-pyrazolo[4,3-b]pyridin-5-yl)pyridin-3-yl)oxy)ethan-1-amine]	1090 nM	17 nM	4280 nM	1160 nM
Cc1ncc(-c2ccc3[nH]nc(-c4cc5ccccc5[nH]4)c3n2)n1C [Compound 681, 5-(1,2-Dimethyl-1H-imidazol-5-yl)-3-(1H-indol-2-yl)-1H-pyrazolo[4,3-b] pyridine]	728 nM	17 nM	640 nM	279 nM
CS(=O)(=O)NCc1cc(F)cc(-c2cccc3[nH]c(-c4n[nH]c5ccc(C6CCNCC6)nc45)cc23)c1 [Compound 789, N-(3-Fluoro-5-(2-(5-(piperidin-4-yl)-1H-pyrazolo[4,3-b]pyridin-3-yl)-1H-indol-4-yl)benzyl)methanesulfonamide]	5180 nM	2250 nM	2950 nM	9630 nM
CS(=O)(=O)NCc1cc(F)cc(-c2cccc3[nH]c(-c4n[nH]c5ccc(-c6cncc(OCc7ccccc7)c6)nc45)cc23)c1 [Compound 802, N-(3-(2-(5-(5-(Benzyloxy)pyridin-3-yl)-1H-pyrazolo[4,3-b]pyridin-3-yl)-1H-indol-4-yl)-5-fluorobenzyl)methanesulfonamide]	1190 nM	473 nM	433 nM	276 nM
